Earlier results in patent US20120263775A1, “PRODUCTION OF PESTICIDE GRANULATES IN A SPOUTED BED APPARATUS” (priority 2009, published 2012).
In brackets after ≈: the same amount, converted by molar mass.

For COC(=O)N(OC)c1ccccc1COc1ccn(-c2ccc(Cl)cc2)n1 [Pyraclostrobin, pyraclostrobin], the solubility in water is given as 2 µg/mL (≈ 5.16 µM).
